Experimental data as given in paper PMC12226049, “Imlunestrant a next-generation oral SERD overcomes ESR1 mutant resistance in estrogen receptor–positive breast cancer” (JCI Insight, 2025).

Biological target: T1, Estrogen receptor α (ER) (Homo sapiens, UniProt P03372, Y537S)
T1 construct: gene ESR1; HA-tagged ER mutant, doxycycline-inducible in MCF7
T1 sequence (P03372 1-595 Y537S): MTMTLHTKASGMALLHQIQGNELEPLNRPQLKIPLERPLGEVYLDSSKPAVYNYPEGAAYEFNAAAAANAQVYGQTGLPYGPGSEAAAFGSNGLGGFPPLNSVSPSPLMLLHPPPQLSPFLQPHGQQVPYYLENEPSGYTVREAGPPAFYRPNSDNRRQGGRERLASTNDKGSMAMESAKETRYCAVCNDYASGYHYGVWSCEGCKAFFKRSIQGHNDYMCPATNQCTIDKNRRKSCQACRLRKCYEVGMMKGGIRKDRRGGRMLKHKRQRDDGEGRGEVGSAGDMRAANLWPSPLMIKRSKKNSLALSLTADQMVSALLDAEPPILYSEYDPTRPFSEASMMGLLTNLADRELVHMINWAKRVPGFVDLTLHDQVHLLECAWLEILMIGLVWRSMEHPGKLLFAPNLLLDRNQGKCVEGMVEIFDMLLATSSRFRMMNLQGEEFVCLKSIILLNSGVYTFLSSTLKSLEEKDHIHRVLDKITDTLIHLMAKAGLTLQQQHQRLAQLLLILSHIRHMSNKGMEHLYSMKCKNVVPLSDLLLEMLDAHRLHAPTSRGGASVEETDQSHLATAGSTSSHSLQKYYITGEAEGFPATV
Assay: degradation of HA-tagged ER-Y537S by western blot in MCF7 cells ([…])
Format: cell-based

Compound: Oc1ccc2c3c(cnc2c1)-c1ccc(C(F)(F)F)cc1O[C@@H]3c1ccc(OCCN2CC(CF)C2)cc1 [IML, imlunestrant]
- degradation of HA-tagged ER-Y537S by western blot in MCF7 cells (100 nM): mutant-ER protein degradation was superior with imlunestrant treatment versus fulvestrant
